Laboratory results as given in ChEMBL document CHEMBL5608211, “Antibody-drug conjugates for targeted cancer therapy: Recent advances in potential payloads” (Eur J Med Chem, 2024).
Starred links: 1 amine or outer side, 2 acyl side, 3 side chain; linkers in the order of their positions; H or OH if unused. Positions of bridges follow the written chain, without caps; N, C: chain ends. Non-standard residues stand in square brackets, D forms with d. Residues, ends and D or L forms follow the SMILES beside them. *: point of attachment. X7 = C[C@H]([C@H](N[*:3])C(=O)C[C@@H](Cc1c([*:2])[nH]c2cc(O)ccc12)C(=O)[*:1])[C@@H](O)CO; Dolaproine = CO[C@@H]([C@@H]1CCCN1)[C@@H](C)C(=O)O; X10 = CC(C)[C@@H](C(=O)[*:2])N(C)CCCCN(C)[*:1]; X1 = O=C([C@]1(N[*:1])C[C@@H]1c1ccccc1)[*:2]; Dil = CC[C@H](C)[C@H](NC)[C@@H](CC(=O)O)OC; X3 = CCOP(=O)(OCC)[C@@H](N[*:1])C(=O)[*:2]; Pro(4R-NH2) = N[C@H]1CN[C@H](C(=O)O)C1; X9 = c1ccc(C[C@H](N*)c2nn[nH]n2)cc1; NMe2Val = CC(C)[C@@H](C(=O)*)N(C)C; X8 = CCOP(=O)(O)[C@H](Cc1ccccc1)N*; X6 = C[C@@H](N*)[C@@H](O)c1ccccc1; NMeV = CN[C@H](C(=O)O)C(C)C; X5 = c1ccc(COC2CON(*)C2)cc1; X2 = c1ccc2c(c1)CON(*)C2; Boc = CC(C)(C)OC(=O)*; X4 = C1=CC2CCC1ON2*; NHOH = ON*

What was measured:
MOLM-13 = assay: Growth inhibition of human MOLM-13 cells incubated for 5 days by PrestoBlue reagent assay; assay type: functional; settings: MOLM-13, 120 h, time 5 day
CCRF-CEM = assay: Cytotoxicity against human CCRF-CEM cells; assay type: functional, cell-based
A2780 = assay: Cytotoxicity against human A2780 cells assessed as inhibition of cell growth incubated for 72 hrs by MTT assay; assay type: functional, cell-based; settings: A2780, 72 h
Tubulin = assay: Displacement of fluorescent Maytansine probe from tubulin (unknown origin) assessed as dissociation constant by competitive binding based fluorescence anisotropy; assay type: protein-complex assay, Homo sapiens
KARPAS-299 = assay: Cytotoxicity against human KARPAS-299 cells incubated for 96 hrs by Alamar blue assay; assay type: functional, cell-based; settings: KARPAS-299, 96 h
A2058 = assay: Cytotoxicity against human A2058 cells assessed as inhibition of cell growth incubated for 96 hrs by CellTiter-Glo luminescent assay; assay type: functional, cell-based; settings: A2058, 96 h
[1] = Inhibition of RNA polymerase II phosphorylation in human HeLa cells by Western blot analysis; assay type: cell-based
H3396 [2] = assay: Cytotoxicity against human H3396 cells assessed as inhibition of cell growth incubated for 96 hrs by Alamar blue assay; assay type: functional, cell-based; settings: H3396, 96 h
HCT-116 = assay: Cytotoxicity against human HCT-116 cells incubated for 96 hrs by resazurin dye based fluorescence spectrometric assay; assay type: functional, cell-based; settings: HCT-116, 96 h
H3396 [3] = assay: Cytotoxicity against human H3396 cells incubated for 96 hrs by resazurin dye based fluorescence spectrometric assay; assay type: functional, cell-based; settings: H3396, 96 h
786-0 = assay: Antiproliferative activity against human 786-0 cells incubated for 48 to 96 hrs by MTT assay; assay type: functional, cell-based
HT-29 [4] = assay: Antiproliferative activity against human HT-29 cells incubated for 48 to 96 hrs by MTT assay; assay type: functional, cell-based
SK-BR-3 = assay: Growth inhibition of human SK-BR-3 cells incubated for 72 hrs by CellTiter-Glo luminescent assay; assay type: functional
[5] = Cytotoxicity against human L540cy cells assessed as reduction in cell growth incubated for 4 days by CellTiter-Glo luminescent assay; assay type: functional, cell-based; settings: 96 h
HT-29 [6] = assay: Antiproliferative activity against human HT-29 cells assessed as inhibition of cell growth incubated for 96 hrs by SRB assay; assay type: functional, cell-based; settings: HT-29, 96 h
DLD-1 = assay: Antiproliferative activity against human DLD-1 cells assessed as inhibition of cell growth incubated for 3 to 4 days; assay type: functional, cell-based

CC[C@H](C)[C@@H]([C@@H](CC(=O)N1C[C@@H](N)C[C@H]1[C@H](OC)[C@@H](C)C(=O)N[C@@H](Cc1ccccc1)C(=O)OC)OC)N(C)C(=O)[C@@H](NC(=O)[C@H](C(C)C)N(C)C)[C@H](C)N=[N+]=[N-]
GI50 (MOLM-13): 0.057 nM

COc1ccc(C[C@H]2NC(=O)/C=C/C[C@@H]([C@H](C)[C@H]3O[C@@H]3c3ccc(F)cc3)OC(=O)[C@H](CC(C)C)OC(=O)C(C)(C)CNC2=O)cc1Cl
IC50 (CCRF-CEM): 0.033 nM

COc1cc2cc(c1Cl)N(C)C(=O)C[C@H](OC(=O)c1ccccc1)[C@@]1(C)O[C@H]1[C@H](C)[C@@H]1C[C@@](O)(NC(=O)O1)[C@H](OC)/C=C/C=C(\C)C2
IC50 (A2780): 0.11 nM | Kd (Tubulin): 51 nM

CC[C@H](C)[C@@H]([C@@H](CC(=O)N1CCC[C@H]1[C@H](OC)[C@@H](C)C(=O)N[C@H](Cc1ccccc1)C(=O)OC)OC)N(C)C(=O)[C@@H](NC(=O)c1ccc(N)cc1)C(C)C
IC50 (KARPAS-299): 0.12 nM

CC[C@H](C)[C@@H]([C@@H](CC(=O)N1CCC[C@H]1[C@H](OC)[C@@H](C)C(=O)N[C@@H](Cc1ccccc1)C(=O)O)OC)N(C)C(=O)[C@@H](NC(=O)[C@H](C(C)C)N(C)CCCCN(C)C(=O)OC(C)(C)C)C(C)C (Boc-[X10]V[Dil][Dolaproine]F-OH)
IC50 (A2058): 1 nM

CC[C@H](C)[C@@H]1NC(=O)CNC(=O)[C@H]2CC(=O)[C@H]([C@@H](C)[C@@H](O)CO)NC(=O)[C@@H]3C[C@@H](N)CN3C(=O)[C@H](CC(N)=O)NC(=O)[C@H](CSc3[nH]c4cc(O)ccc4c3C2)NC(=O)CNC1=O (GIGCN[Pro(4R-NH2)]; linker N-4-C via X7)
IC50 [1]: 550 nM

CC[C@H](C)[C@@H]([C@@H](CC(=O)N1CCC[C@H]1[C@H](OC)[C@@H](C)C(=O)N[C@H](C)[C@@H](O)c1ccccc1)OC)N(C)C(=O)[C@@H](NC(=O)[C@@H](NC)C(C)C)C(C)C (H-[NMeV]V[Dil][Dolaproine]-X6)
IC50 (H3396 [2]): 0.1 nM

CCOP(=O)(O)[C@H](Cc1ccccc1)NC(=O)[C@H](C)[C@@H](OC)[C@@H]1CCCN1C(=O)C[C@@H](OC)[C@H]([C@@H](C)CC)N(C)C(=O)[C@@H](NC(=O)[C@@H](NC)C(C)C)C(C)C (H-[NMeV]V[Dil][Dolaproine]-X8)
IC50 (HCT-116): 0.09 nM

CC[C@H](C)[C@@H]([C@@H](CC(=O)N1CCC[C@H]1[C@H](OC)[C@@H](C)C(=O)N[C@@H](Cc1ccccc1)c1nn[nH]n1)OC)N(C)C(=O)[C@@H](NC(=O)[C@@H](NC)C(C)C)C(C)C (H-[NMeV]V[Dil][Dolaproine]-X9)
IC50 (H3396 [3]): 6 nM

CC[C@H](C)[C@@H]([C@@H](CC(=O)N1CCC[C@H]1[C@H](OC)[C@@H](C)C(=O)N[C@@H](Cc1ccccc1)C(=O)N1CC(OCc2ccccc2)CO1)OC)N(C)C(=O)[C@@H](NC(=O)[C@@H](NC)C(C)C)C(C)C (stereo partly specified) (H-[NMeV]V[Dil][Dolaproine]F-X5)
IC50 (786-0): 0.5 nM | IC50 (HT-29 [4]): 0.5 nM

CC[C@H](C)[C@@H]([C@@H](CC(=O)N1CCC[C@H]1[C@H](OC)[C@@H](C)C(=O)N[C@@]1(C(=O)N2Cc3ccccc3CO2)C[C@@H]1c1ccccc1)OC)N(C)C(=O)[C@@H](NC(=O)[C@@H](NC)C(C)C)C(C)C (H-[NMeV]V[Dil][Dolaproine][X1]-X2)
IC50 (786-0): 0.5 nM | IC50 (HT-29 [4]): 0.5 nM

CCOP(=O)(OCC)[C@@H](NC(=O)[C@H](C)[C@@H](OC)[C@@H]1CCCN1C(=O)C[C@@H](OC)[C@H]([C@@H](C)CC)N(C)C(=O)[C@@H](NC(=O)[C@@H](NC)C(C)C)C(C)C)C(=O)N1OC2C=CC1CC2 (stereo partly specified) (H-[NMeV]V[Dil][Dolaproine][X3]-X4)
IC50 (786-0): 0.5 nM | IC50 (HT-29 [4]): 0.5 nM

CC[C@H](C)[C@@H]([C@@H](CC(=O)N1CCC[C@H]1[C@H](OC)[C@@H](C)C(=O)N[C@@H](CC(C)C)C(=O)NO)OC)N(C)C(=O)[C@@H](NC(=O)[C@H](C(C)C)N(C)C)C(C)C (NMe2Val-V[Dil][Dolaproine]L-{NHOH})
GI50 (SK-BR-3): 0.1 nM

O=C(/C=C/c1cccnc1)NCCCCC1CCN(C(=O)c2ccccc2)CC1 [DAPORINAD]
EC50 [5]: 6.7 nM

CC[C@H](C)[C@@H]([C@@H](CC(=O)N1CCC[C@H]1[C@H](OC)[C@@H](C)C(=O)N[C@@H](Cc1ccccc1)c1nccs1)OC)N(C)C(=O)[C@@H](NC(=O)[C@H](C(C)C)N(C)C)C(C)C [DOLASTATIN-10]
IC50 (HT-29 [6]): 0.018 nM

C=C1C[C@@H]2CC[C@@]34C[C@H]5O[C@H]6[C@@H](O3)[C@H]3O[C@H](CC[C@@H]3O[C@H]6[C@H]5O4)CC(=O)C[C@@H]3[C@@H](OC)[C@@H](C[C@H](O)CN)O[C@H]3C[C@H]3O[C@@H](CC[C@@H]1O2)C[C@@H](C)C3=C [ERIBULIN]
IC50 (DLD-1): 13 nM

COc1cc2cc(c1Cl)N(C)C(=O)C[C@H](OC(=O)[C@H](C)N(C)C(C)=O)[C@]1(C)O[C@H]1[C@H](C)[C@@H]1C[C@@](O)(NC(=O)O1)[C@H](OC)/C=C/C=C(\C)C2 [MAYTANSINE]
Kd (Tubulin): 14 nM
